Experiments:
Type in all cases: in vivo, rat
[1] = system: conscious Sprague-Dawley rats; test: Acute cardiovascular and renal excretory studies, i.v. bolus (Example 3); conditions: for Effect on heart rate (HR) / Effect on MAP / Potassium concentration [K+] in cumulative urine / Sodium concentration [Na+] in cumulative urine / Urine osmolality / Total urine output: i.v. bolus; for Effect on heart rate (HR) / Effect on MAP: 90-min protocol; for Effect on MAP: diuretic alone; for Potassium concentration [K+] in cumulative urine / Sodium concentration [Na+] in cumulative urine / Urine osmolality: cumulative 90-min urine, same doses; for Potassium concentration [K+] in cumulative urine / Sodium concentration [Na+] in cumulative urine / Urine osmolality / Total urine output: mean±SEM; for Total urine output: cumulative urine of 90-min protocol, nalfurafine 5 μg kg−1, furosemide 7.5 mg kg−1, HCTZ 2.5 mg kg−1, amiloride 2 mg kg−1, n=6
Protocol: (§1) Animals: Male Sprague-Dawley (SD) rats (Envigo Labs, Indianapolis, IN), 300-350 g, were individually housed under a 12 h light-dark cycle and allowed tap water and standard rodent diet ad libitum. Rats were randomly assigned to experimental groups for all acute and subacute studies. All procedures were approved by the Louisiana State University Health Sciences Center Institutional Animal Care and Use Committee and conducted in accordance with the National Institutes of Health guidelines for the care and use of animals.
Surgical Procedures: Aseptic technique was followed for all surgical procedures. On the morning of the experiment, rats were anesthetized with and maintained under inhaled 2% isoflurane, and polyethylene catheters (PE50; BD Diagnostics, Sparks, MD) were surgically inserted into the left femoral vein and left femoral artery for the infusion of saline and/or drug administration and the recording of arterial blood pressure, respectively. Subsequently, a suprapubic incision was made and a flanged polyethylene catheter (PE240; BD Diagnostics, Sparks, MD) was inserted into the bladder, exteriorized, and sutured to surrounding muscle and skin. Rats were then placed in an elevated restrainer (Krowicki & Kapusta, 2011) to recover from surgery and allow collection of urine. When acute experimental protocols were completed, rats were anesthetized via isoflurane and decapitated.
Acute Cardiovascular and Renal Excretory Studies: Following surgery, rats received an i.v. infusion of isotonic saline at 55 μL min^−1 throughout the duration of the experiment and were allowed 4-6 hours to recover from anesthesia. Arterial catheters were connected to a pressure transducer (MLT0670, ADInstruments, Sydney, Australia), which was connected to Powerlab 8/30 (ADInstruments) for recording of pulsatile and mean arterial blood pressure (MAP) and heart rate (HR). Blood pressure and HR were visualized using LabChart software (v8.1.5; ADInstruments). […] Following this control period, drug or vehicle (isotonic saline) was injected into the femoral vein catheter at a volume of 2 cc kg^−1, and urines were collected in 10 minute periods for a span of 90 minutes. […] All groups are n=6. Urine volume was measured gravimetrically, urine sodium and potassium concentrations were measured using flame photometry (model 943; Instrumentation Laboratories, Lexington, MA), and urine osmolality was measured using a vapor pressure osmometer (model 5600; WESCOR, Logan, UT).
(§2) Experimental Design and Analysis: All results are expressed as mean±SEM. […] Means between groups for total urine output, Na^+ concentration, K^+ concentration, and urine osmolality were compared using a Student's t-test. Statistical significance was characterized as P<0.05. Statistics were carried out using Prism 7.05 software (GraphPad Software, Inc., San Diego, CA) and IBM SPSS Statistics (IBM, Armonk, NY).

[2] = system: conscious Sprague-Dawley rats; test: Metabolic cage renal excretory studies, oral gavage (Example 3); conditions: oral gavage, mean±SEM; for Potassium concentration [K+] in cumulative urine / Sodium concentration [Na+] in cumulative urine: cumulative 5-hour urine, same doses; for Total urine output: cumulative urine of 5-hour protocol, nalfurafine 150 μg kg−1, furosemide 50 mg kg−1, HCTZ 5 mg kg−1, amiloride 5 mg kg−1, n=6
Protocol: as §1
Metabolic Cage Renal Excretory Studies: Rats were placed in metabolic cages (model 18cv, Fenco, Cataumet, MA) for 2 hours to allow for acclimation and voiding of residual urine. Following the acclimation period, rats were volume loaded with 20 cc kg^−1 drug or vehicle (isotonic saline) via oral gavage. Urines were collected each hour over a 5-hour period. Following completion of the study rats were returned to their home cages. […] These points are marked on the figures with number of measurements in parentheses.
as §2

[3] = system: conscious Sprague-Dawley rats; test: Acute cardiovascular and renal excretory studies with ICV or IV norBNI pretreatment (Example 4)
Protocol: Male Sprague-Dawley rats (Envigo Labs, Indianapolis, IN) were individually housed, allowed tap water and standard rodent diet ad libitum, and kept under a 12-hour light-dark cycle. Rats used in these experiments weighed between 300 and 350 grams and were randomly assigned to experimental groups. All procedures were conducted in accordance with the National Institutes of Health guidelines for the care and use of animals and approved by the Louisiana State University Health Sciences Center Institutional Animal Care and Use Committee.
Aseptic technique was adhered to for all surgeries and detailed surgical methods were followed as previously described.^14 Briefly, 3-5 days before experimentation, rats requiring central ventricle access for administration of drug/vehicle into the brain were anesthetized with ketamine and xylazine and a stainless-steel cannula was stereotaxically implanted into the right lateral cerebral ventricle.^14
On the morning of the experiment, rats were anesthetized and maintained with inhaled 2% isoflurane, and polyethylene catheters were surgically placed into the left femoral artery, left femoral vein, and urinary bladder.^15.16 Following surgery, rats were placed in an elevated restrainer for recovery and collection of urine from an indwelling bladder catheter.^15 After completion of experimental protocols, rats were anesthetized with isoflurane and decapitated.
During stabilization of cardiovascular and renal excretory parameters, rats received an isotonic saline infusion (55 μl/min), which lasted throughout the duration of the experiment. To record mean arterial pressure (MAP) and heart rate (HR), arterial catheters were connected to a pressure transducer (MLT0670, ADInstruments, Sydney, Australia), which was connected to Powerlab 8/30 (ADInstruments) and visualized using LabChart software (v8.1.5; ADInstruments). After one hour of recovery from surgery, rats were pretreated with the KOR antagonist norBNI or isotonic saline vehicle through either an intracerebroventricular (ICV) catheter or intravenous (IV) catheter. […] Next, drug or vehicle (isotonic saline) was injected into the femoral vein and urine samples were collected every 10 minutes during a 90-minute experimental period. The following drug concentrations were used: nalfurafine 5 μg/kg, difelikefalin 10 μg/kg, norBNI 30 mg/kg (IV), norBNI 1 μg/5 μL (ICV). All groups are n=6. Urine sodium and potassium were measured using a flame photometer (model 943; Instrumentation Laboratories, Lexington, MA). Urine volume was measured gravimetrically, and urine osmolality was measured using a vapor pressure osmometer (model 5600; WESCOR, Logan, UT).
All results are expressed as mean±SEM. For determining statistically different changes at time points within a treatment group, means were compared to the control value using 2-way ANOVA with repeated measures and a post hoc Dunnett test following confirmation of a significant F value. For statistically different changes at individual time points between treatment groups, mean values were compared using 2-way ANOVA with repeated measures and a post hoc Sidak test following confirmation of a significant/value. For means between groups for total urine output, urine sodium concentration, urine potassium concentration, and urine osmolality, a Student/test was used. Statistical significance was characterized as P<0.05 and statistics were performed on Prism 7.05 software (GraphPad Software, Inc, San Diego, CA).

Compound | Duration of the increase in urine flow rate above control ([1]; after i.v. bolus) | Effect on heart rate (HR) [1] | Effect on MAP [1] | Potassium concentration [K+] in cumulative urine [1] | Sodium concentration [Na+] in cumulative urine [1] | Urine osmolality [1] | Total urine output [1] | Potassium concentration [K+] in cumulative urine [2] | Sodium concentration [Na+] in cumulative urine [2] | Total urine output [2] | Time of peak diuresis (urine flow rate) ([1]; after i.v. bolus) | Effect of norBNI pretreatment on the diuresis ([3]; norBNI 1 μg/5 μL ICV before difelikefalin 10 μg/kg IV) | Effect of norBNI pretreatment on the diuresis ([3]; norBNI 1 μg/5 μL ICV before nalfurafine 5 μg/kg IV) | Effect of norBNI pretreatment on the diuresis ([3]; norBNI 30 mg/kg IV before difelikefalin 10 μg/kg IV) | Effect of norBNI pretreatment on the diuresis ([3]; norBNI 30 mg/kg IV before nalfurafine 5 μg/kg IV)
NS(=O)(=O)c1cc2c(cc1Cl)NCNS2(=O)=O [HCTZ, hydrochlorothiazide] | returned to baseline levels by 50-min | did not produce any changes in MAP or HR | did not produce any changes in MAP or HR | 14.76±3.12 μeq ml^−1 | 155.6±8.04 μeq ml^−1 | 439.3 ± 15.94 mmol/kg | 9.22 ± 0.50 mL | 26.50±1.91 μeq ml^−1 | 119.70±3.04 μeq ml^−1 | 14.55 ± 0.57 mL |  |  |  |  | 
N=C(N)NC(=O)c1nc(Cl)c(N)nc1N [amiloride] | 30 min | Heart rate did not change | minimal effects on MAP | 0.85±0.19 μeq ml^−1 | 137.60±6.01 μeq ml^−1 | 398.3 ± 18.05 mmol/kg | 8.42 ± 0.40 mL | 4.02±0.54 μeq ml^−1 | 130.9±5.32 μeq ml^−1 | 8.61 ± 0.63 mL | 10 min |  |  |  | 
Oc1ccc2c3c1O[C@H]1c4[nH]c5c(c4C[C@@]4(O)[C@@H](C2)N(CC2CC2)CC[C@]314)C[C@@]1(O)[C@H]2Cc3ccc(O)c4c3[C@@]1(CCN2CC1CC1)[C@H]5O4 [norBNI, norbinaltorphimine] |  |  |  |  |  |  |  |  |  |  |  | significantly attenuated the peak increase and duration of the difelikefalin-induced diuresis | markedly attenuated | completely blocked the diuresis | nearly abolished
